PubChem BioAssay AID330 (DTP/NCI, 2004)
Values joined by “and” are separate entries in the source; they are usually repeats but may differ in a detail not shown here. Equal values may be shown once. Inconclusive results and toxic doses are left out. Rule for the calls: active = survival T/C of 150% or more; inactive = T/C below 125% in these data.

Test system: P388 leukemia ip, CD2F1 mice, survival T/C
Test: NCI In Vivo Anticancer Drug Screen. Data for tumor model P388 Leukemia (intraperitoneal) in CD2F1 (CDF1) mice
Conditions: endpoint: median survival time, higher = longer survival
Procedure, shortened: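 Mice carrying the transplanted tumor received test compound or vehicle. Survival was recorded in each group, and the value is the treated-group measurement divided by that of the vehicle-treated control group.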

[1] = dose: 50.0 mg/kg/injection, schedule: Q01DX009 (ip), vehicle: Klucel (hydroxypropylcellulose) (HPC)
[2] = dose: 100.0 mg/kg/injection, schedule: Q01DX009 (ip), vehicle: Klucel (hydroxypropylcellulose) (HPC)
[3] = dose: 200.0 mg/kg/injection, schedule: Q01DX009 (ip), vehicle: Klucel (hydroxypropylcellulose) (HPC)
[4] = dose: 50.0 mg/kg/injection, schedule: Q01DX005 (ip), vehicle: saline with Tween-80
[5] = dose: 100.0 mg/kg/injection, schedule: Q01DX005 (ip), vehicle: saline with Tween-80
[6] = dose: 200.0 mg/kg/injection, schedule: Q01DX005 (ip), vehicle: saline with Tween-80
[7] = dose: 100.0 mg/kg/injection, schedule: Q04DX003 (ip), vehicle: saline with Tween-80
[8] = dose: 400.0 mg/kg/injection, schedule: Q04DX003 (ip), vehicle: saline with Tween-80

Measured: T/C

COc1cc2c(c(OC)c1OC)CCCC2=O
inactive: [1] 111 % of control | [2] 113 % of control | [3] 117 % of control

Cc1ccnc(NC(N)=O)n1
inactive: dose: 50.0 mg/kg/injection, schedule: Q01DX009 (ip), vehicle: saline with Tween-80 103 % of control | dose: 100.0 mg/kg/injection, schedule: Q01DX009 (ip), vehicle: saline with Tween-80 103 % of control | dose: 200.0 mg/kg/injection, schedule: Q01DX009 (ip), vehicle: saline with Tween-80 101 % of control

CN1CNC(=O)c2n[nH]nc21
inactive: dose: 12.5 mg/kg/injection, schedule: Q04DX002 (ip), vehicle: Klucel (hydroxypropylcellulose) (HPC) 99 % of control | dose: 25.0 mg/kg/injection, schedule: Q04DX002 (ip), vehicle: Klucel (hydroxypropylcellulose) (HPC) 108 % of control | dose: 50.0 mg/kg/injection, schedule: Q04DX002 (ip), vehicle: Klucel (hydroxypropylcellulose) (HPC) 100 % of control and 102 % of control

CC(=O)NC(C=O)C(O)C(O)C(O)C(=O)O (stereo not given) (tested in a mixture with another compound)
inactive: dose: 6.25 mg/kg/injection, schedule: Q01DX009 (ip), vehicle: Klucel (hydroxypropylcellulose) (HPC) 101 % of control | dose: 12.5 mg/kg/injection, schedule: Q01DX009 (ip), vehicle: Klucel (hydroxypropylcellulose) (HPC) 94 % of control | dose: 25.0 mg/kg/injection, schedule: Q01DX009 (ip), vehicle: Klucel (hydroxypropylcellulose) (HPC) 92 % of control

Cc1cc(OCC(=O)N/N=C/c2ccc(N(CCCl)CCCl)cc2)c2ccc(Cl)cc2n1
inactive: dose: 50.0 mg/kg/injection, schedule: Q01DX009 (ip), vehicle: saline 95 % of control and 97 % of control | dose: 100.0 mg/kg/injection, schedule: Q01DX009 (ip), vehicle: saline 97 % of control | dose: 200.0 mg/kg/injection, schedule: Q01DX009 (ip), vehicle: saline 101 % of control and 87 % of control

Fc1cccc(CSC(=S)Nc2ccc(Cl)c(C(F)(F)F)c2)c1
inactive: dose: 50.0 mg/kg/injection, schedule: Q01DX009 (ip), vehicle: suspension in saline 98 % of control | dose: 100.0 mg/kg/injection, schedule: Q01DX009 (ip), vehicle: suspension in saline 93 % of control | dose: 200.0 mg/kg/injection, schedule: Q01DX009 (ip), vehicle: suspension in saline 98 % of control

N#CCc1ccccc1C(C#N)C(=O)CCC(=O)C(C#N)c1ccccc1CC#N (stereo not given)
inactive: dose: 60.0 mg/kg/injection, schedule: Q01DX005 (ip), vehicle: saline with Tween-80 104 % of control | dose: 120.0 mg/kg/injection, schedule: Q01DX005 (ip), vehicle: saline with Tween-80 103 % of control | dose: 240.0 mg/kg/injection, schedule: Q01DX005 (ip), vehicle: saline with Tween-80 102 % of control

CCCCCCCCCCCCCCCCCC(=O)OCC(=O)OCC(=O)[C@]1(O)Cc2c(O)c3c(c(O)c2[C@@H](OC2CC(N)C(O)C(C)O2)C1)C(=O)c1c(OC)cccc1C3=O (stereo not given in full)
inactive: dose: 6.25 mg/kg/injection, schedule: Q01DX009 (ip), vehicle: water 93 % of control and 98 % of control
active: dose: 0.39 mg/kg/injection, schedule: Q01DX009 (ip), vehicle: water 150 % of control | dose: 0.78 mg/kg/injection, schedule: Q01DX009 (ip), vehicle: water 157 % of control | dose: 1.56 mg/kg/injection, schedule: Q01DX009 (ip), vehicle: water 180 % of control and 194 % of control | dose: 3.13 mg/kg/injection, schedule: Q01DX009 (ip), vehicle: water 200 % of control and 203 % of control

CC(=O)c1cccc(NC(=O)C2C(=O)C(=O)N(c3cccc(C(C)=O)c3)C2=O)c1 (stereo not given)
inactive: [1] 91 % of control | [2] 104 % of control | [3] 101 % of control

CCOC(=O)C1CC(=O)c2ccccc2C1 (stereo not given)
inactive: dose: 6.25 mg/kg/injection, schedule: Q01DX009 (ip), vehicle: distilled water + Tween-80 101 % of control | dose: 12.5 mg/kg/injection, schedule: Q01DX009 (ip), vehicle: distilled water + Tween-80 96 % of control | dose: 25.0 mg/kg/injection, schedule: Q01DX009 (ip), vehicle: distilled water + Tween-80 95 % of control | dose: 50.0 mg/kg/injection, schedule: Q01DX009 (ip), vehicle: distilled water + Tween-80 102 % of control | dose: 100.0 mg/kg/injection, schedule: Q01DX009 (ip), vehicle: distilled water + Tween-80 100 % of control | dose: 200.0 mg/kg/injection, schedule: Q01DX009 (ip), vehicle: distilled water + Tween-80 101 % of control | dose: 400.0 mg/kg/injection, schedule: Q01DX009 (ip), vehicle: distilled water + Tween-80 109 % of control

NCC(=O)NCC(=O)NC(Cc1ccc(O)cc1)C(=O)O (stereo not given)
inactive: [4] 101 % of control | [5] 96 % of control | [6] 104 % of control

Cc1ccccc1N
inactive: dose: 50.0 mg/kg/injection, schedule: Q01DX009 (ip), vehicle: saline sonified 100 % of control | dose: 100.0 mg/kg/injection, schedule: Q01DX009 (ip), vehicle: saline sonified 100 % of control | dose: 200.0 mg/kg/injection, schedule: Q01DX009 (ip), vehicle: saline sonified 104 % of control

c1ccc(-c2cc3nccnc3[nH]2)cc1
inactive: dose: 15.0 mg/kg/injection, schedule: Q01DX005 (ip), vehicle: Klucel (hydroxypropylcellulose) (HPC) 100 % of control | dose: 30.0 mg/kg/injection, schedule: Q01DX005 (ip), vehicle: Klucel (hydroxypropylcellulose) (HPC) 92 % of control | dose: 60.0 mg/kg/injection, schedule: Q01DX005 (ip), vehicle: Klucel (hydroxypropylcellulose) (HPC) 87 % of control and 89 % of control | dose: 120.0 mg/kg/injection, schedule: Q01DX005 (ip), vehicle: Klucel (hydroxypropylcellulose) (HPC) 97 % of control

c1ccc2sc(SCSc3nc4ccccc4s3)nc2c1
inactive: [1] 111 % of control | [2] 112 % of control | [3] 114 % of control | dose: 400.0 mg/kg/injection, schedule: Q01DX009 (ip), vehicle: Klucel (hydroxypropylcellulose) (HPC) 117 % of control

COC1C(/C=C2\CC(=O)N(c3ccccc3)C2=O)OC2OC(C)(C)OC21 (stereo not given)
inactive: dose: 100.0 mg/kg/injection, schedule: Q01DX001 (ip), vehicle: suspension in saline 97 % of control | dose: 200.0 mg/kg/injection, schedule: Q01DX001 (ip), vehicle: suspension in saline 102 % of control | dose: 400.0 mg/kg/injection, schedule: Q01DX001 (ip), vehicle: suspension in saline 100 % of control

COc1ccc(/C=N\N=C(/[O-])c2ccccc2O)cc1.COc1ccc(/C=N\N=C(/[O-])c2ccccc2O)cc1.[Ni+2]
inactive: dose: 50.0 mg/kg/injection, schedule: Q04DX002 (ip), vehicle: saline with Tween-80 93 % of control | dose: 100.0 mg/kg/injection, schedule: Q04DX002 (ip), vehicle: saline with Tween-80 86 % of control | dose: 200.0 mg/kg/injection, schedule: Q04DX002 (ip), vehicle: saline with Tween-80 88 % of control

COC(=O)C1=[N+]([O-])OC(C(=O)OC)C1c1ccc(NC(C)=O)cc1 (stereo not given)
inactive: [4] 98 % of control | [5] 93 % of control | [6] 90 % of control

C=C1C2CCC3C(CCC4C5(C)CCCC43C3OCCN3C5)(C2)C1OC(C)=O (stereo not given)
inactive: dose: 12.0 mg/kg/injection, schedule: Q01DX009 (ip), vehicle: Klucel (hydroxypropylcellulose) (HPC) 100 % of control | dose: 24.0 mg/kg/injection, schedule: Q01DX009 (ip), vehicle: Klucel (hydroxypropylcellulose) (HPC) 96 % of control | dose: 48.0 mg/kg/injection, schedule: Q01DX009 (ip), vehicle: Klucel (hydroxypropylcellulose) (HPC) 91 % of control

Cc1ccc(S(=O)(=O)C[n+]2ccc3ccccc3c2)cc1
inactive: [7] 98 % of control | dose: 100.0 mg/kg/injection, schedule: Q04DX003 (ip), vehicle: saline 114 % of control and 118 % of control | dose: 200.0 mg/kg/injection, schedule: Q04DX003 (ip), vehicle: saline with Tween-80 105 % of control | dose: 200.0 mg/kg/injection, schedule: Q04DX003 (ip), vehicle: saline 117 % of control | [8] 100 % of control

C#CC(C)C(C(C)=O)C(=O)c1ccccc1.[C-]#[O+].[C-]#[O+].[C-]#[O+].[C-]#[O+].[C-]#[O+].[C-]#[O+].[Co].[Co] (stereo not given)
inactive: dose: 12.5 mg/kg/injection, schedule: Q01DX005 (ip), vehicle: Klucel (hydroxypropylcellulose) (HPC) 108 % of control | dose: 25.0 mg/kg/injection, schedule: Q01DX005 (ip), vehicle: Klucel (hydroxypropylcellulose) (HPC) 101 % of control | dose: 50.0 mg/kg/injection, schedule: Q01DX005 (ip), vehicle: Klucel (hydroxypropylcellulose) (HPC) 104 % of control and 95 % of control

O=C(c1ccccc1)C(C(=O)c1ccccc1)C(c1ccccc1)(c1ccccc1)c1ccccc1
inactive: dose: 12.5 mg/kg/injection, schedule: Q04DX003 (ip), vehicle: saline with Tween-80 97 % of control | dose: 25.0 mg/kg/injection, schedule: Q04DX003 (ip), vehicle: saline with Tween-80 99 % of control and 98 % of control | dose: 50.0 mg/kg/injection, schedule: Q04DX003 (ip), vehicle: saline with Tween-80 87 % of control | [7] 90 % of control and 91 % of control | [8] 88 % of control
